Measurements reported in patent US8680300B2, “Dioxanes derived from regrouping carbohydrates and C-glycosides, process for obtaining same and uses thereof” (Universidad de la Laguna, priority 2009, dated 2014).

Legend:
neural cell line HT22 [1] = experiment: Cytotoxicity trial, trypan blue dye, cell line HT22; type: cell-based, mouse; details: HT22, concentrations of 1 and 5 μM
Protocol: (§1) Two stable cell lines of different origins were used for these trials: neural cell line HT22 from mouse hippocampus and line MCF7 from human breast cancer.
(§2) Both cell lines were grown in a DMEM culture medium supplemented with 10% foetal bovine serum and antibiotics at 37° C. with a 5% CO2 atmosphere. 35-mm Petri dishes were used as growth media. When the cultures reached approximately 80% confluence they were exposed to the different compounds of the study for 24 hours at 37° C., at concentrations of 0.1, 1 and 5 μM. The compounds were previously diluted in DMSO.
(§3) For the cytotoxicity trials, after 24 hours of treatment with the compounds, the cells were treated with trypsin, resuspending them in DMEM and counting them. On one hand, an aliquot of 100 μl was preserved for the total count of the cells present in Neubauer chambers. On the other, the rest of the cell volume (approximately 1 ml) was processed for dyeing with trypan blue to visualise those cells susceptible to dyeing (non-viable cells) against intact cells (viable cells). To this end, the ViCell (Beckman Coulter) quantifier was used.

cell line MCF7 = experiment: Visualisation of MCF7 cultures after exposure to the compounds; type: cell-based, human; details: MCF7, 5 μM, after 4-5 hours of treatment
Protocol: as §1
(§4) Both cell lines were grown in a DMEM culture medium supplemented with 10% foetal bovine serum and antibiotics at 37° C. with a 5% CO2 atmosphere. 35-mm Petri dishes were used as growth media. […] The compounds were previously diluted in DMSO.
(§5) (The control cultures of FIG. 3 were compared to the cultures of HT22 and MCF7 exposed to the compounds—FIGS. 4 and 5 respectively—).

cell line HT22 = experiment: Visualisation of HT22 cultures after exposure to the compounds; type: cell-based, mouse; details: HT22, 5 μM, after 4-5 hours of treatment
Protocol: as §1, §4, §5

MCF7 breast cancer cells [2] = experiment: Cytotoxicity trial, trypan blue dye, cell line MCF7; type: cell-based, human; details: for cytotoxicity (conclusion, in words): MCF7, concentrations of 1 and 5 μM
Protocol: as §1, §2, §3

MCF7 breast cancer cells [3] = experiment: Cell proliferation trial, cell line MCF7; type: cell-based, human
Protocol: as §1, §2, §3

neural cell line HT22 [4] = experiment: Cell proliferation trial, cell line HT22; type: cell-based, mouse; details: for antiproliferative effect (conclusion, in words): HT22; for decrease in normal proliferation: HT22, 24 hours, versus medium (DMSO at 0.01%), concentration not given
Protocol: as §1, §2, §3

Row | Structure (SMILES) | cytotoxicity (conclusion, in words) (neural cell line HT22 [1]) | cytotoxic effect on visualisation of cultures (cell line MCF7) | cytotoxic effect on visualisation of cultures (cell line HT22) | cytotoxicity (conclusion, in words) (MCF7 breast cancer cells [2]) | antiproliferative effect (conclusion, in words) (MCF7 breast cancer cells [3]; MCF7) | proliferation inhibition (in words) (MCF7 breast cancer cells [3]; MCF7, 24 hours, versus medium (DMSO at 0.01%)) | antiproliferative effect (conclusion, in words) (neural cell line HT22 [4]) | decrease in normal proliferation (neural cell line HT22 [4]) | toxicity (percentage of cell death, trypan blue) (MCF7 breast cancer cells [2]; MCF7, 24 hours, normalised to medium (DMSO at 0.01%), concentration not given) [%] | toxicity (in words) (MCF7 breast cancer cells [2]; MCF7, 24 hours, concentration not given)
1 | CO[C@H]1O[C@@H](OC(C)=O)[C@H]([C@@H](COC(C)=O)OC)O[C@@H]1OC [Compound 6] | highly cytotoxic | significant cytotoxic effect | significant cytotoxic effect | highly cytotoxic |  |  |  |  |  | 
2 | CO[C@@H]1O[C@@H](OC(C)=O)[C@H]([C@@H](COC(C)=O)OC)O[C@@H]1OC [Compound 7] | highly cytotoxic | significant cytotoxic effect | significant cytotoxic effect | highly cytotoxic |  |  |  |  |  | 
3 | CO[C@H]1O[C@@H]2OC[C@@H](OC)[C@@H]2O[C@@H]1OC [Compound 8] |  |  |  |  | antiproliferative effects | partial proliferation inhibition | antiproliferative effects | approximately 50% |  | 
4 | CO[C@@H]1O[C@@H]2OC[C@@H](OC)[C@@H]2O[C@@H]1OC [Compound 9] |  |  |  |  |  |  | antiproliferative effects | approximately 50% | > 65 | high toxicity
